This is an account of results in patent US9035056B2, “Pyrido[4,3-b]indole and pyrido[3,4-b]indole derivatives and methods of use” (Medivation Technologies, Inc., priority 2011, dated 2015).

The target in experiment [1] is T1, human recombinant serotonin (5-Hydroxytryptamine) 5-HT7 receptor (Homo sapiens, UniProt P34969).
T1 construct: expressed in transfected cells; host or cells: CHO
As to the kind of experiment: Serotonin 5-HT7 radioligand binding ([3H]LSD). The note with it: 0.1 μM compound; read-out: Percentage inhibition of ligand binding, Serotonin 5-HT7. As to the method: To evaluate in radioligand binding assays the activity of compounds of the invention, human recombinant serotonin (5-Hydroxytryptamine) 5-HT7 receptor expressed in Chinese hamster ovary (CHO) cells (Roth, B. et al, J. Pharmacol. Exp. Ther. 268:1403, 1994; Shen, Y. et al, J. Biol. Chem. 268:18200, 1993) in a modified Tris-HCl buffer (50 mM Tris-HCl, pH 7.4, 10 mM MgCl2, 0.5 mM EDTA) was used. Compounds of invention were incubated with 5.5 nM [^3H] Lysergic acid diethylamide (LSD) for 2 h at 25° C. Non-specific binding was estimated in the presence of 10 μM Serotonin (5-HT). Receptor proteins were filtered and washed, the filters were then counted to determine [^3H]LSD specifically bound. Compounds were screened at 1 μM or lower, using 1% DMSO as vehicle. Biochemical assay results are presented as the percent inhibition of specific binding in Table 5.

Experiment [2] deals with T2, human recombinant adrenergic α1D receptor (Homo sapiens, UniProt P25100).
T2 construct: expressed in transfected cells; host or cells: HEK-293
T2 sequence (P25100 1-572): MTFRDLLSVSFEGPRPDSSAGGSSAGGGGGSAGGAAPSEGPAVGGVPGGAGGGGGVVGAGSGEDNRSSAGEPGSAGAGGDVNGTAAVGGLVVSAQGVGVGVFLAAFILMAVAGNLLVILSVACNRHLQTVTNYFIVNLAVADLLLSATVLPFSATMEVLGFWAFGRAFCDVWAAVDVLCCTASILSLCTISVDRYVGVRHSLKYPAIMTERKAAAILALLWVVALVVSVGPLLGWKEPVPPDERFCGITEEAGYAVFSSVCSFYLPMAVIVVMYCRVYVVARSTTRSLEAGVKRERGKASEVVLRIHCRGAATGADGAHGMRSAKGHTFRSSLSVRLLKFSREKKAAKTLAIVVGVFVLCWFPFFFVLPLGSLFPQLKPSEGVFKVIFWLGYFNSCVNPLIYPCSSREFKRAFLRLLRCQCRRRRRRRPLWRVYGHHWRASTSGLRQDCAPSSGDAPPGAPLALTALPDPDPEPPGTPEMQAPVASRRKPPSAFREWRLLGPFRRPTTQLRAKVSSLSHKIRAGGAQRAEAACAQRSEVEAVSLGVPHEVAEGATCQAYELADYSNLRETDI
As to the kind of experiment: Adrenergic α1D radioligand binding ([3H]Prazosin). The settings on record: 0.1 μM compound; read-out: Percentage inhibition of ligand binding, Adrenergic α1D. As for the experimental part: To evaluate in radioligand binding assays the activity of compounds of the invention, human recombinant adrenergic α1D receptor expressed in human embryonic kidney (HEK-293) cells (Kenny, B. et al, Br. J. Pharmacol. 115(6):981, 1995) in a 50 mM Tris-HCl buffer, pH 7.4, was used. Compounds of invention were incubated with 0.6 nM [^3H]Prazosin for 60 min at 25° C. Non-specific binding was estimated in the presence of 10 μM phentolamine. Receptor proteins were filtered and washed, the filters were then counted to determine [^3H]Prazosin specifically bound. Compounds were screened at 1 μM or lower, using 1% DMSO as vehicle. Biochemical assay results are presented as the percent inhibition of specific binding in Table 3.

The target in experiment [3] is T3, human recombinant serotonin (5-Hydroxytryptamine) 5-HT6 receptor (Homo sapiens, UniProt P50406).
T3 construct: expressed in transfected cells; host or cells: HeLa
As to the kind of experiment: Serotonin 5-HT6 radioligand binding ([3H]LSD). The settings on record: 0.1 μM compound; read-out: Percentage inhibition of ligand binding, Serotonin 5-HT6. As to the method:
To evaluate in radioligand binding assays the activity of compounds of the invention, human recombinant serotonin (5-Hydroxytryptamine) 5-HT6 receptor expressed in human HeLa cells (Monsma, F. Jr. et al, Mol. Pharmacol. 43:320, 1993) in a modified Tris-HCl buffer (50 mM Tris-HCl, pH 7.4, 150 mM NaCl, 2 mM Ascorbic Acid, 0.001% BSA) was used. Compounds of the invention were incubated with 1.5 nM [3H]Lysergic acid diethylamide (LSD) for 120 min at 37° C. Non-specific binding was estimated in the presence of 5 μM Serotonin (5-HT). Receptor proteins were filtered and washed, the filters were then counted to determine [3H]LSD specifically bound. Compounds were screened at 1 μM or lower, using 1% DMSO as vehicle. Biochemical assay results are presented as the percent inhibition of specific binding in Table 5.

Experiment [4] addresses T4, human recombinant serotonin (5-Hydroxytryptamine) 5-HT5A receptor (Homo sapiens, UniProt P47898).
T4 construct: expressed in transfected cells; host or cells: CHO-K1
As to the kind of experiment: Serotonin 5-HT5A radioligand binding ([3H]LSD). The settings on record: 0.1 μM compound; read-out: Percentage inhibition of ligand binding, Serotonin 5-HT5A. As to the method: To evaluate in radioligand binding assays the activity of compounds of the invention, human recombinant serotonin (5-Hydroxytryptamine) 5-HT5A receptor expressed in Chinese hamster ovary (CHO) K1 cells (Rees, S. et al, FEBS Lett. 355:242, 1994) in a modified Tris-HCl buffer (50 mM Tris-HCl, pH 7.4, 10 mM MgCl2, 0.5 mM EDTA) was used. Compounds of the invention were incubated with 1.7 nM [^3H]Lysergic acid diethylamide (LSD) for 60 min at 37° C. Non-specific binding was estimated in the presence of 100 μM Serotonin (5-HT). Receptor proteins were filtered and washed, the filters were counted to determine [^3H]LSD specifically bound. Compounds were screened at 1 μM or lower, using 1% DMSO as vehicle. Biochemical assay results are presented as the percent inhibition of specific binding in Table 5.

For orientation: inhibition means the drop in the measured response relative to a control, in per cent.

T1 sequence (P34969 whole entry): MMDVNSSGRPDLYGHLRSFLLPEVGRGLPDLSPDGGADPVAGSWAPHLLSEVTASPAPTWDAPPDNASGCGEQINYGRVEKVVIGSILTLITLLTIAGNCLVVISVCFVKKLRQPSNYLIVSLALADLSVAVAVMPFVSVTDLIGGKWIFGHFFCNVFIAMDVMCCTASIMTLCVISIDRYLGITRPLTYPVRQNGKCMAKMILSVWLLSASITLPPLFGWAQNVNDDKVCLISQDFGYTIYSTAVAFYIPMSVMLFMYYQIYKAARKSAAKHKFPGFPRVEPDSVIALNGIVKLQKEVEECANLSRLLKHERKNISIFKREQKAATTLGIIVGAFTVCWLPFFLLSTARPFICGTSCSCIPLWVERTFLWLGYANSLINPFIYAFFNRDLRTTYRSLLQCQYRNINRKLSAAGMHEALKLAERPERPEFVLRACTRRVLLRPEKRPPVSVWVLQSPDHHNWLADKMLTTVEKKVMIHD
T3 sequence (P50406 whole entry): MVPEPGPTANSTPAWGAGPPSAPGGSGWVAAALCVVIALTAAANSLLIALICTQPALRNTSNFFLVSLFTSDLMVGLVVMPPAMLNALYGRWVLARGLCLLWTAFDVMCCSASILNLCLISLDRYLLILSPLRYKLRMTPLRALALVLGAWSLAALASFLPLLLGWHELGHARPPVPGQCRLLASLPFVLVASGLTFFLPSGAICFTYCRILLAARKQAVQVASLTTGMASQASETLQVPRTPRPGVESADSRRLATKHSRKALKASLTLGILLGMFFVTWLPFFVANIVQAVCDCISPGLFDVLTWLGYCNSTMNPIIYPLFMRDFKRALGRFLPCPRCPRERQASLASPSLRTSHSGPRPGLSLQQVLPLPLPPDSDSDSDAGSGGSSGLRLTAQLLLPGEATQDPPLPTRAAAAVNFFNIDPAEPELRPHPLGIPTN
T4 sequence (P47898 whole entry): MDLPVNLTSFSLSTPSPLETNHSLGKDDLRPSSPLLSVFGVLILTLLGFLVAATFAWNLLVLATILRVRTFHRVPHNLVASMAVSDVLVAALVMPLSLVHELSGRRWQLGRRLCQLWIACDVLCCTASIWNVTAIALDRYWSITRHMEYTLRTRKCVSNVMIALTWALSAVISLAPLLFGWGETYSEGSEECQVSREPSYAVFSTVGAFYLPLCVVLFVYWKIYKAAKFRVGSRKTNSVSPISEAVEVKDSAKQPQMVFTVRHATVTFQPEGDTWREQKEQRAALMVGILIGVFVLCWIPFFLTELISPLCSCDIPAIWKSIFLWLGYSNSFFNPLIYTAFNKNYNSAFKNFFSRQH

Consider `Cc1ccc2c(c1)c1c(n2/C=C2/CCCc3ccccc32)CCN(C)C1` [i-2], for which the inhibition at 0.1 µM was found to be 97% in experiment [1], 86% in experiment [2], 102% in experiment [3] and 101% in experiment [4].

For the compound `Cc1ccc2c(c1)c1c(n2/C=C2\CCCc3ccccc32)CCN(C)C1` [i-3], the inhibition at 0.1 µM is 96% in experiment [1], 43% in experiment [2], 83% in experiment [3] and 91% in experiment [4].
